Test results as given in patent publication US11850331B2, “Devices with anti-thrombogenic and anti-microbial treatment” (TELEFLEX MEDICAL INCORPORATED, priority 2013, dated 2023).

Experiments:
[1] = tested on: human blood; assay: Fluid phase thrombin clotting time, alexidine versus chlorhexidine (Example 4); format: biochemical; conditions: for clotting time: 6.25 ug/mL; for Thrombin Clotting Time in whole blood: replicates 1-5
Description: The following provides a side-by-side comparison of alexidine with chlorhexidine. Fluid phase experiments were conducted to compare the influences of alexidine and chlorhexidine on thrombin clotting time (Table 6). […] The reaction mixtures contained freshly drawn human blood, alexidine or chlorhexidine as indicated, and exogenously added thrombin. The experiment was repeated five times, as indicated by replicates 1-5. The concentrations of alexidine or chlorhexidine that were used in the experiments were zero ug/mL (baseline), 3.125, 6.25, 12.5, 25, 50, or 100 ug/mL, as indicated. […] This dramatic difference was also observed when higher concentrations of antimicrobials were used in the clotting reactions.

[2] = background statement; cited from earlier work
[3] = tested on: human blood; assay: Thrombin clotting time in whole blood, alexidine solutions (Example 1); format: biochemical; conditions: partial clotting
Description: Solutions of varying alexidine concentrations (50-300 micrograms/mL) were incubated in individual test tubes, each containing 0.50 mL of human blood. The human blood was supplemented with 3.8% sodium citrate. The incubation was for 1 hour on a gyratory shaker set at 24 rpm and 37 degrees C. After 1 hour, 10 microliters of 500 Units/mL thrombin, and 60 microliters of 200 mM CaCl2 was added to each of the incubating blood samples. Blood clotting time was then measured using a stop watch. Table 1 discloses the results.

| Structure (SMILES) | clotting time [1] | Thrombin Clotting Time in whole blood ([1]; 50 μg/mL) [h] | Thrombin Clotting Time in whole blood ([1]; 100 μg/mL) [h] | solubility in water [2] | Thrombin Clotting Time in whole blood ([3]; 0.2 mg/mL alexidine) | Thrombin Clotting Time in whole blood ([3]; 0.3 mg/mL alexidine) | Thrombin Clotting Time in whole blood ([1]; 12.5 μg/mL) [h] | Thrombin Clotting Time in whole blood ([1]; 25 μg/mL) [h] | potency in inhibiting blood clotting relative to chlorhexidine ([1]; thrombin clotting time, fluid phase) |
| --- | --- | --- | --- | --- | --- | --- | --- | --- | --- |
| [H]/N=C(\N/C(=N/[H])NCCCCCCNC(=N)NC(=N)Nc1ccc(Cl)cc1)Nc1ccc(Cl)cc1 [chlorhexidine] | about thirty | >24 | >24 | – | – | – | – | – | – |
| N=C(NCCCCCCNC(=N)NC(=N)Nc1ccc(Cl)cc1)NC(=N)Nc1ccc(Cl)cc1.O=C(O)[C@H](O)[C@@H](O)[C@H](O)[C@H](O)CO.O=C(O)[C@H](O)[C@@H](O)[C@H](O)[C@H](O)CO [CHG, chlorhexidine gluconate] | – | – | – | highly soluble in water | – | – | – | – | – |
| CCCCC(CC)CNC(=N)NC(=N)NCCCCCCNC(=N)NC(=N)NCC(CC)CCCC (stereo not shown) [alexidine] | about five | >24 | >24 | relatively low solubility in water | Greater than 72 hours (partial clotting) | Greater than 72 hours (partial clotting) | >24 | >24 | four times more potent |
